# Results: patent US6387905B2, “Compounds useful for inhibition of farnesyl protein transferase” (Schering Corporation, priority 1996, dated 2002)
# Read-outs that look alike come from different tables or passages of the source.
# Columns and labels:
# [1] = target: farnesyl protein transferase (FPT), H-ras (Homo sapiens, UniProt P49354+P49356); test: FPT IC50 (H-ras), inhibition of farnesyl protein transferase, in vitro enzyme assay; format: biochemical
# Method: (§1) FPT IC50 (inhibition of farnesyl protein transferase, in vitro enzyme assay) and COS Cell IC50 (Cell-Based Assay) were determined following the assay procedures described in WO 95/10516, published Apr. 20, 1995. GGPT IC50 (inhibition of geranylgeranyl protein transferase, in vitro enzyme assay), Cell Mat Assay, and anti-tumor activity (in vivo anti-tumor studies) could be determined by the assay procedures described in WO 95/10516. The disclosure of WO 95/10516 is incorporated herein by reference thereto.
# COS Cell = COS Cell IC50 (Cell-Based Assay)
# Method: as §1
# Human tumor cells = test: Soft Agar Assay (anchorage-independent growth); format: cell-based; conditions: Homo sapiens, Table 5; read-out: Soft Agar IC50
# Method: Anchorage-independent growth is a characteristic of tumorgenic cell lines. Human tumor cells are suspended in growth medium containing 0.3% agarose and an indicated concentration of a farnesyl transferase inhibitor. The solution is overlayed onto growth medium solidified with 0.6% agarose containing the same concentration of farnesyl transferase inhibitor as the top layer. After the top layer is solidified, plates are incubated for 10-16 days at 37° C. under 5% CO2 to allow colony outgrowth. After incubation, the colonies are stained by overlaying the agar with a solution of MTT (3-[4,5-dimethyl-thiazol-2-yl]-2,5-diphenyltetrazolium bromide, Thiazolyl blue) (1 mg/mL in PBS). Colonies can be counted and the IC50's can be determined.
# [2] = Table 3, H-ras, read-out: FPT IC50 (nM) (H-ras)
# [3] = COS, Table 5, read-out: Cos Cell IC50
# [4] = H-ras, read-out: FPT IC50 (H-ras)
Compound,"IC50 ([1]; Table 4, read-out: FPT IC50) [nM]",IC50 (COS Cell; [3]) [nM],IC50 (Human tumor cells) [nM],further results
"O=C(CC1CCN(C(=O)CN2CCS(=O)(=O)CC2)CC1)N1CCC(C2c3ncc(Br)cc3CCc3cc(Cl)cc(Br)c32)CC1 (single isomer, unassigned; (+)) [Example 23]",,,,"IC50 [1, 2]: 2.7 nM; IC50 (COS Cell; COS, Table 3, read-out: COS Cell IC50): 14 nM"
O=C(CC1CCN(C(=O)CN2CCS(=O)(=O)CC2)CC1)N1CCC([C@H]2c3ncc(Br)cc3CCc3cc(Cl)cc(Br)c32)CC1 [Cmpd 6.0-B],2.7,30,210,
O=C(CCN1CCCCC1)N1CCC(CC(=O)N2CCC([C@H]3c4ncc(Br)cc4CCc4cc(Cl)cc(Br)c43)CC2)CC1 [Cmpd 7.0-B],< 2.6,43,,
CC(C)=NOCC(=O)N1CCC(CC(=O)N2CCC([C@H]3c4ncc(Br)cc4CCc4cc(Cl)cc(Br)c43)CC2)CC1 [Cmpd 9.0-B],5.8,25,> 500,
Cc1nccn1CC(=O)N1CCC(CC(=O)N2CCC([C@H]3c4ncc(Br)cc4CCc4cc(Cl)cc(Br)c43)CC2)CC1 [Cmpd 10.0-B],2.5,20,> 300,
Cc1cn(CC(=O)N2CCC(CC(=O)N3CCC([C@H]4c5ncc(Br)cc5CCc5cc(Cl)cc(Br)c54)CC3)CC2)cn1 [Cmpd 11.0-B],1.6,29,> 500,
O=C(CC1CCN(C(=O)Cn2cnc3ccccc32)CC1)N1CCC([C@H]2c3ncc(Br)cc3CCc3cc(Cl)cc(Br)c32)CC1 [Cmpd 12.0-B],3,20,> 500,
O=C(CC1CCN(C(=O)Cn2cnc3cccnc32)CC1)N1CCC([C@H]2c3ncc(Br)cc3CCc3cc(Cl)cc(Br)c32)CC1 [Cmpd 13.0-B],4.1,25,> 500,
O=C(O)C(=O)N1CCC(CC(=O)N2CCC([C@H]3c4ncc(Br)cc4CCc4cc(Cl)cc(Br)c43)CC2)CC1 [Cmpd 17.0-B],1.2,> 1000,> 500,
O=C(CC1CCN(C(=O)Cn2cnc(-c3ccccc3)c2)CC1)N1CCC([C@H]2c3ncc(Br)cc3CCc3cc(Cl)cc(Br)c32)CC1 [Cmpd 20.0-B],5.6,,,
CCOC(=O)c1c(C)ncn1CC(=O)N1CCC(CC(=O)N2CCC([C@H]3c4ncc(Br)cc4CCc4cc(Cl)cc(Br)c43)CC2)CC1 [Cmpd 21.0-B],5.7,,> 500,
O=C(CO/N=C/c1cc[n+]([O-])cc1)N1CCC(CC(=O)N2CCC([C@H]3c4ncc(Br)cc4CCc4cc(Cl)cc(Br)c43)CC2)CC1 [Cmpd 22.0-B],1.8,35,19.5,
CC(C)=NOCCC(=O)N1CCC(CC(=O)N2CCC([C@H]3c4ncc(Br)cc4CCc4cc(Cl)cc(Br)c43)CC2)CC1 [Cmpd 23.0-B],2.8,< 10,> 500,
O=C(CC1CCN(C(=O)Cn2cnc([N+](=O)[O-])c2)CC1)N1CCC([C@H]2c3ncc(Br)cc3CCc3cc(Cl)cc(Br)c32)CC1 [Cmpd 26.0-B],3.2,30,> 500,
O=C(Cc1c[nH]cn1)N1CCC(CC(=O)N2CCC([C@H]3c4ncc(Br)cc4CCc4cc(Cl)cc(Br)c43)CC2)CC1 [Cmpd 30.0-B],2.9,9,500,
NNC(=O)C(=O)N1CCC(CC(=O)N2CCC([C@H]3c4ncc(Br)cc4CCc4cc(Cl)cc(Br)c43)CC2)CC1 [Cmpd 32.0-B],3.5,28,> 500,
CN(C)C(=O)C(=O)N1CCC(CC(=O)N2CCC([C@H]3c4ncc(Br)cc4CCc4cc(Cl)cc(Br)c43)CC2)CC1 [Cmpd 33.0-B],2.1,10,> 120,
O=C(CC1CCN(C(=O)Cn2cccc2)CC1)N1CCC([C@H]2c3ncc(Br)cc3CCc3cc(Cl)cc(Br)c32)CC1 [Cmpd 34.0-B],4.2,9,460,
COC(=O)c1cccn1CC(=O)N1CCC(CC(=O)N2CCC([C@H]3c4ncc(Br)cc4CCc4cc(Cl)cc(Br)c43)CC2)CC1 [Cmpd 35.0-B],6.4,30,300,"IC50 (COS Cell; Table 5, read-out: Cos Cell IC50): 50 nM"

Compound,"IC50 ([1]; Table 4, read-out: FPT IC50) [nM]",IC50 (COS Cell; [3]) [nM],IC50 (Human tumor cells) [nM],further results
O=C(CO)N1CCC(CC(=O)N2CCC([C@H]3c4ncc(Br)cc4CCc4cc(Cl)cc(Br)c43)CC2)CC1 [Cmpd 37.0-B],2.6,,75,
CN(C)S(=O)(=O)NCC(=O)N1CCC(CC(=O)N2CCC([C@H]3c4ncc(Br)cc4CCc4cc(Cl)cc(Br)c43)CC2)CC1 [Cmpd 38.0-B],3.2,10,210,
NS(=O)(=O)NCC(=O)N1CCC(CC(=O)N2CCC([C@H]3c4ncc(Br)cc4CCc4cc(Cl)cc(Br)c43)CC2)CC1 [Cmpd 39.0-B],4.1,16,220,
N#CCC(=O)N1CCC(CC(=O)N2CCC([C@H]3c4ncc(Br)cc4CCc4cc(Cl)cc(Br)c43)CC2)CC1 [Cmpd 44.0-B],2.6,< 10,120,
CONC(=O)C(=O)N1CCC(CC(=O)N2CCC(C3c4ncc(Br)cc4CCc4cc(Cl)cc(Br)c43)CC2)CC1 (stereo not shown) [Cmpd 49.0-B],2.1,38,> 500,
NC(=O)CC(=O)N1CCC(CC(=O)N2CCC([C@H]3c4ncc(Br)cc4CCc4cc(Cl)cc(Br)c43)CC2)CC1 [Cmpd 50.0-B],3.3,< 10,95,
COC(NC(=O)CC(=O)N1CCC(CC(=O)N2CCC([C@H]3c4ncc(Br)cc4CCc4cc(Cl)cc(Br)c43)CC2)CC1)C(C)C (stereo partly shown) [Cmpd 51.0-B],8.1,280,,
CCOC(=O)c1c(C)ncn1CC(=O)N1CCC(CC(=O)N2CCC([C@H]3c4ncc(Br)cc4CCc4cc(Cl)cc(Br)c43)CC2)CC1 [Cmpd 53.0-B],3.6,50,,
O=C(NO)C(=O)N1CCC(CC(=O)N2CCC([C@H]3c4ncc(Br)cc4CCc4cc(Cl)cc(Br)c43)CC2)CC1 [Cmpd 58.0-B],16,,,
CNC(=O)C(=O)N1CCC(CC(=O)N2CCC([C@H]3c4ncc(Br)cc4CCc4cc(Cl)cc(Br)c43)CC2)CC1 [Cmpd 64.0-B],,10,130,
NC(=O)CCCCC(=O)N1CCC(CC(=O)N2CCC([C@H]3c4ncc(Br)cc4CCc4cc(Cl)cc(Br)c43)CC2)CC1 [Cmpd 67.0-B],3.5,,,
CCOC(CC(=O)N1CCC(CC(=O)N2CCC([C@H]3c4ncc(Br)cc4CCc4cc(Cl)cc(Br)c43)CC2)CC1)OCC [Cmpd 76.0-B],6.7,,,
NCCCC(=O)N1CCC(CC(=O)N2CCC([C@H]3c4ncc(Br)cc4CCc4cc(Cl)cc(Br)c43)CC2)CC1 [Cmpd 90.0-B],3.8,,,
CC(C)(C)OC(=O)N[C@@H](Cc1ccccc1)C(=O)N1CCC(CC(=O)N2CCC([C@H]3c4ncc(Br)cc4CCc4cc(Cl)cc(Br)c43)CC2)CC1 [Example 7],,,,"IC50 [1, 2]: 31.7 nM"
O=C(O)CCCC(=O)N1CCC(CC(=O)N2CCC([C@H]3c4ncc(Br)cc4CCc4cc(Cl)cc(Br)c43)CC2)CC1 [Example 19.0-B],1.1,,,"IC50 (COS Cell; COS, read-out: Cos Cell IC50, Table 5): 17.5 nM; IC50 (COS Cell; read-out: Cos Cell IC50, Table 5): < 10 nM"
CC(C)=NOCCC(=O)N1CCC(CC(=O)N2CCC([C@H]3c4ncc(Br)cc4CCc4cc(Cl)cc(Br)c43)CC2)CC1 [Example 23.0-B],,,,"IC50 [1, 4]: 2.8 nM"
O=C(CC1CCN(C(=O)CN2C(=O)CSC2=O)CC1)N1CCC([C@H]2c3ncc(Br)cc3CCc3cc(Cl)cc(Br)c32)CC1 [Example 79.0-B],,,,"IC50 [1, 4]: 4.4 nM"
CC(C)(C)OC(=O)NCCC(=O)N1CCC(CC(=O)N2CCC([C@H]3c4ncc(Br)cc4CCc4cc(Cl)cc(Br)c43)CC2)CC1 [Example 86.0-B],18,,,
NC(=O)CCCCC(=O)N1CCC(CC(=O)N2CCC([C@H]3c4ncc(Br)cc4CCc4cc(Cl)cc(Br)c43)CC2)CC1 [Example 108.0-B],,,,"IC50 [1, 4]: 3.5 nM"
